According to patent publication US8962036B2, “Disintegrable formulations of lanthanum carbonate” (Mylan Pharmaceuticals Inc., priority 2009, dated 2015):

Columns and labels:
[1] = Phosphate Binding Assay (excess phosphate, pH 3.0, 37° C., ion chromatography); details: 2.5 mg La2(CO3)3/mL phosphate solution, 60 minutes; for Binding Capacity, Ground Tablet: whole tablet coarsely ground before analysis; for Binding Capacity, Whole Tablet: whole tablet without further modification
From the text: Table II describes the phosphate binding ability of the prepared Examples in either whole or ground tablet form. The ground tablets simulate a chewable tablet formulation after chewing has occurred. Phosphate binding ability is a term used to predict the amount of phosphate that can be bound by a sequestrant under conditions which employ a large excess of phosphate, such as those found in the stomach. Mazzeo, J. R.; et. al. Journal of Pharmaceutical and Biomedical Analysis 1999, vol. 19, pps. 911-915. This assay, which utilizes a large excess of phosphate, is therefore a better functional model of biological conditions than the assay described in U.S. Pat. No. 5,968,976 which utilizes only two molar equivalents of phosphate ion per mole of lanthanum carbonate.
The uncoated, compressed tablets obtained from Examples 1-17 were assessed for phosphate binding ability. Whole tablets, prepared as described above, as well as coarsely ground tablets were both examined.
i. Preparation of stock phosphate solution:
21.4 g N,N-bis(hydroxyethyl)-2-aminoethanesulfonic acid, 4.7 g NaCl, and 2.7 g KH2PO4 (ultra high purity) were added to a 1000 mL volumetric flask and dissolved in 950 mL DI H2O. The pH was then adjusted to 3.0 (±0.05) with HCl, and the solution was diluted to volume with DI H2O and mixed.
The lanthanum carbonate complex was added to the stock phosphate solution so that the final concentration was 2.5 mg La2(CO3)3/mL phosphate solution. The mixture was heated at 37° C. for 60 minutes with constant swirling. It was then filtered through a 0.2 μm nylon filter.
The sample was then diluted to allow injection into the ion chromatograph. Here, a dilution factor of 100 was used: a 1.0 mL aliquot was removed and diluted volumetrically to 100 mL with DI water.
iii. Phosphate Measurement
The amount of unbound phosphate was determined by ion chromatography on a Dionex ICS-1500 ion chromatograph equipped with a conductivity cell (35° C.) and a Dionex MRS 300 4 mm auto suppressor. Material was eluted through a Dionex AG11-HC guard column (4×50 mm) and a Dionex AS11-HC column (4×250 mm) at 1.0 mL/min using 25 mM NaOH in DI H2O as the mobile phase. The sample response was then recorded by a computerized chromatography data system.
iv. Construction of Phosphate Calibration Curve
The linearity of the response was verified as follows. A series of standards over a wide range of free phosphate concentration (approximately 0.04, 0.06, 0.10, 0.15, 0.20, and 0.25 mM) were prepared and their ion chromatographic responses were determined. A plot of free phosphate concentration (mM) vs. response was then constructed. The slope and y-intercept of the resulting linear regression plot were then determined.
The phosphate binding capacity was calculated from the following equations.

[2] = Disintegration of uncoated, compressed tablets in deionized water (USP <701>); format: physicochemical; details: whole, intact tablet in deionized water; single tablet per example
Protocol: The uncoated, compressed tablets were assessed for disintegration. The disintegration time was measured using the procedure and apparatus as described by physical test <701>, Disintegration, from The United States Pharmacopeia, Volume 29. The disintegration of a single tablet from each example was measured.

Row | SMILES | Binding Capacity, Ground Tablet [1] | Binding Capacity, Whole Tablet [1] | Disintegration Time [2] [h]
1 | O=C([O-])[O-].O=C([O-])[O-].O=C([O-])[O-].[La+3].[La+3] [Example 14, La2(CO3)3•5H20] | 3.0 mmol PO4-2/g La2(CO3)3 | 0.7 mmol PO4-2/g La2(CO3)3 | 5
2 | O.O.O.O.O.O.O.O.O=C([O-])[O-].O=C([O-])[O-].O=C([O-])[O-].[La+3].[La+3] [Example 15, La2(CO3)3•8H20] | 3.0 mmol PO4-2/g La2(CO3)3 | 0.6 mmol PO4-2/g La2(CO3)3 | >7
3 | O.O.O.O.O.O.O.O.O.O.O.O.O.O.O=C([O-])[O-].O=C([O-])[O-].O=C([O-])[O-].[La+3].[La+3] [Example 16, La2(CO3)3•14H20] | 3.6 mmol PO4-2/g La2(CO3)3 | 0.8 mmol PO4-2/g La2(CO3)3 | >7
